From patent US11576873B2, “Compositions for the treatment of drug-resistant tumors and methods of use thereof” (THE CURATORS OF THE UNIVERSITY OF MISSOURI, priority 2017, dated 2023) come the findings set out here.

Structures are written as SMILES.

Holding throughout (experiment): 72 h toxicity of erlotinib, cell viability / IC50 analysis
Common to all, as to format: cell-based

One assay deals with HCC827. The conditions noted are these: HCC827 carrying E746-A750 deletion. The procedure:
(§1) FIG. 42A,B. FIG. 42A and 42B show 72 h toxicity of erlotinib in various NSCLC cells lines: (A) Cell viability plot and (B) IC50 analysis. Results were averaged from 3 independent experiments.
(§2) The IC50 of erlotinib was investigated in multiple cell lines based on their AXL and FN14 expressions and EGFR/KRAS mutant status (FIG. 42). […] The independent and combined effects of AXL and FN14 siRNAs were also examined. siRNA and siRNA based constructs for treatment and studied variation in IC50 of erlotinib in multiples drug resistant cell lines were used.

A further assay deals with H1975. The settings on record: Homo sapiens, NCI-H1975; T790M mutant H1975, 72 h. On the procedure: as §1, §2
In a further assay the test system is H820 cells. The conditions noted are these: Homo sapiens, NCI-H820, H820 (del E746-E749 and T790M). On the procedure:
as §1
(§3) (A, C, E) Represent the cell viability plot and (B, D, F) represent the associated IC50 analysis.
as §2

For another assay, the system named is A549. The procedure: as §1, §3, §2
Rho, et al., Cancer Res 2014; 74: 253-262. […] Srikar, et al., Sci Rep 2016; 6: 30245.

As usually defined, the IC50 is the concentration at which inhibition is half-maximal. As to `C#Cc1cccc(Nc2ncnc3cc(OCCOC)c(OCCOC)cc23)c1` [erlotinib], the sensitivity to erlotinib result in the assay with HCC827 is “highly sensitive”. Also, the concentration for half-maximal inhibition (IC50) is more than 10 µM with H1975; more than 10 µM in the assay on H820 cells; more than 10 µM with A549 (Homo sapiens, A549, 72 h, read-out: IC50 of erlotinib). Further, the “resensitization towards the drug” value in the assay with A549 (A549, downregulating all three pathways (AXL, FN14, KRAS)) is “total resensitization”.
